# According to patent US12679837B2, “Aminopyrimidine compound as CDK2/4/6 triple inhibitor” (CISEN PHARMACEUTICAL CO., LTD, priority 2019, dated 2026):
# System: MDA-MB-468 cells
# Assay: MDA-MB-468 cell activity test (CellTiter-Glo)
# Type: cell-based
# Procedure: Experimental materials: L15 medium, fetal bovine serum, penicillin/streptomycin antibiotics were purchased from Vicente. CellTiter-Glo (chemiluminescence detection reagent for cell viability) reagent was purchased from Promega. The MDA-MB-468 cell line was purchased from Cobioer Biosciences Co., Ltd. Nivo Multilabel Analyzer (PerkinElmer).
# Experimental method: MDA-MB-468 cells were seeded in a white 96-well plate, 80 μL of cell suspension per well, which contained 1000 MDA-MB-468 cells. The cell plate was incubated overnight in a carbon dioxide incubator. The compounds to be tested were diluted 5-fold to the 9th concentration with a row gun, that is, from 10 mM to 25.6 nM, and a double-replicate well experiment was set up. 78 μL of medium was added to the middle plate, and then transferred 2 μL per well of the gradient diluted compound to the middle plate according to the corresponding position, mixed well and transferred 20 μL per well to the cell plate. The concentration of compound transferred to the cell plate ranged from 50 μM to 0.128 nM. The cell plate was incubated in a carbon dioxide incubator for 7 days. Another cell plate was prepared, and the signal value was read as the maximum value (Max value in the equation below) on the day of drug addition to participate in data analysis. 25 μL of chemiluminescence detection reagent for cell viability was added to each well of the cell plate, and incubated at room temperature for 10 minutes to stabilize the luminescence signal. A multi-label analyzer was used for reading.
# Data analysis: Using the equation (Sample−Min)/(Max−Min)×100% to convert the original data into inhibition rate, the IC50 value can be obtained by curve fitting with four parameters (obtained by the mode of log(inhibitor) vs. response—Variable slope in GraphPad Prism).
structure (smiles),measurement,setting,value
C[C@@]1(O)CCC[C@H]1N1C(=O)CCc2cnc(NC3CCN(S(C)(=O)=O)CC3)nc21 [Compound 1A],IC50,"Homo sapiens, 168 h, MDA-MB-468 cells (Rb-negative), 7 days, read-out: Antiproliferative activity (IC50) MDA-MB-468",640 nM
same,Selectivity ratio(MDA-MB-468/HCC1806),"ratio of antiproliferative IC50, MDA-MB-468/HCC1806",4.1
